Like-named read-outs stand apart in the source and are kept apart here.
How the values were obtained:
Type in all cases: in vivo
[1] = system: Puccinia triticina; Synonym: Puccinia recondita f sp. tritici; assay: Wheat Brown Rust (PUCCRT) fungicidal activity on wheat seedlings; conditions: Low Volume, 121.5 g/H
Procedure, shortened: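 Yuma wheat seedlings (first leaf emerged) were sprayed to run-off with compound in acetone/water 1:9 (110 ppm Triton X-100), and P. triticina spores were inoculated before or after treatment. Plants were kept overnight in a 22 °C dark dew room at 100% RH, then moved to a 24 °C greenhouse; % control was based on first-leaf severity (0–100%) versus untreated plants.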

Leptosphaeria nodorum = assay: Wheat Glume Blotch (LEPTNO) fungicidal activity on wheat seedlings; conditions: Parastagonospora nodorum, 24 h, 1 Day Protectant, read-out: LEPTNO 1 DP disease control
Method: Technical grades of materials were dissolved in acetone, which were then mixed with nine volumes of water (H2O) containing 110 ppm Triton X-100. The fungicide solutions were applied onto wheat seedlings using an automated booth sprayer to run-off. All sprayed plants were allowed to air dry prior to further handling. All fungicides were evaluated using the aforementioned method for their activity vs. all target diseases, unless stated otherwise. Wheat leaf blotch and brown rust activity were also evaluated using track spray applications, in which case the fungicides were formulated as EC formulations, containing 0.1% Trycol 5941 in the spray solutions. Wheat plants (variety Yuma) were grown from seed in a greenhouse in 50% mineral soil/50% soil-less Metro mix until the first leaf was fully emerged, with 7-10 seedlings per pot. These plants were inoculated with an aqueous spore suspension of Septoria tritici either prior to or after fungicide treatments. After inoculation the plants were kept in 100% relative humidity (one day in a dark dew chamber followed by two to three days in a lighted dew chamber at 20° C.) to permit spores to germinate and infect the leaf. The plants were then transferred to a greenhouse set at 20° C. for disease to develop. When disease symptoms were fully expressed on the 1st leaves of untreated plants, infection levels were assessed on a scale of 0 to 100 percent disease severity. Percent disease control was calculated using the ratio of disease severity on treated plants relative to untreated plants. Example C: Evaluation of Fungicidal Activity: Wheat Glume Blotch (Leptosphaeria nodorum; Bayer code […]) Wheat plants (variety Yuma) were grown from seed in a greenhouse in 50% mineral soil/50% soil-less Metro mix until the first leaf was fully emerged, with 7-10 seedlings per pot. These plants were inoculated with an aqueous spore suspension of Leptosphaeria nodorum 24 h after fungicide treatments. After inoculation the plants were kept in 100% relative humidity (one day in a dark dew chamber followed by two days in a lighted dew chamber at 20° C.) to permit spores to germinate and infect the leaf. The plants were then transferred to a greenhouse set at 20° C. for disease to develop. Fungicide formulation, application and disease assessment followed the procedures as described in the Example A.

Venturia inaequalis = assay: Apple Scab (VENTIN) fungicidal activity on apple seedlings; conditions: 24 h, 1 Day Protectant, read-out: VENTIN 1 DP disease control
Method: Technical grades of materials were dissolved in acetone, which were then mixed with nine volumes of water (H2O) containing 110 ppm Triton X-100. The fungicide solutions were applied onto wheat seedlings using an automated booth sprayer to run-off. All sprayed plants were allowed to air dry prior to further handling. All fungicides were evaluated using the aforementioned method for their activity vs. all target diseases, unless stated otherwise. Wheat leaf blotch and brown rust activity were also evaluated using track spray applications, in which case the fungicides were formulated as EC formulations, containing 0.1% Trycol 5941 in the spray solutions. Wheat plants (variety Yuma) were grown from seed in a greenhouse in 50% mineral soil/50% soil-less Metro mix until the first leaf was fully emerged, with 7-10 seedlings per pot. These plants were inoculated with an aqueous spore suspension of Septoria tritici either prior to or after fungicide treatments. After inoculation the plants were kept in 100% relative humidity (one day in a dark dew chamber followed by two to three days in a lighted dew chamber at 20° C.) to permit spores to germinate and infect the leaf. The plants were then transferred to a greenhouse set at 20° C. for disease to develop. When disease symptoms were fully expressed on the 1st leaves of untreated plants, infection levels were assessed on a scale of 0 to 100 percent disease severity. Percent disease control was calculated using the ratio of disease severity on treated plants relative to untreated plants. Example D: Evaluation of Fungicidal Activity: Apple Scab (Venturia inaequalis; Bayer code […]) Apple seedlings (variety McIntosh) were grown in soil-less Metro mix, with one plant per pot. Seedlings with two expanding young leaves at the top (older leaves at bottom of the plants were trimmed) were used in the test. Plants were inoculated with a spore suspension of Venturia inaequalis 24 h after fungicide treatment and kept in a 22° C. dew chamber with 100% relative humidity for 48 h, and then moved to a greenhouse set at 20° C. for disease to develop. Fungicide formulation, application and disease assessment on the sprayed leaves followed the procedures as described in the Example A.

[2] = 24 h, 1 Day Protectant, read-out: PUCCRT 1DP disease control
[3] = 72 h, 3 Day Curative, read-out: PUCCRT 3DC disease control

Row | SMILES | pest or weed control at 121.5 g/ha [1, 2] | pest or weed control at 121.5 g/ha [1, 3] | pest or weed control at 100 ppm (Leptosphaeria nodorum) | pest or weed control at 100 ppm (Venturia inaequalis)
1 | COc1ccnc(C(=O)N[C@@H](C)C(=O)O[C@@H](C)C(c2ccccc2)c2ccccc2)c1OC(=O)C(C)C [Cmpd 140] | > 80% | < 80% | > 80% | > 80%
2 | COc1ccnc(C(=O)N[C@@H](C)C(=O)O[C@@H](C)C(c2ccc(F)cc2)c2ccc(F)cc2)c1OCOC(C)=O [Cmpd 146] | > 80% | > 80% | > 80% | > 80%
3 | COc1ccnc(C(=O)N[C@@H](C)C(=O)O[C@@H](C)C(c2ccccc2)c2ccccc2)c1OC(C)=O [Cmpd 139, (S)-(S)-1,1-diphenylpropan-2-yl 2-(3-acetoxy-4-methoxypicolinamido)propanoate] | > 80% | > 80% | > 80% | > 80%
4 | COc1ccnc(C(=O)N[C@@H](C)C(=O)O[C@@H](C)C(c2ccccc2)c2ccccc2)c1OCOC(C)=O [Cmpd 141, (S)-(S)-1,1-diphenylpropan-2-yl 2-(3-(acetoxymethoxy)-4-methoxypicolinamido)propanoate] | > 80% | > 80% | > 80% | > 80%
5 | COc1ccnc(C(=O)N[C@@H](C)C(=O)O[C@@H](C)C(c2ccccc2)c2ccccc2)c1OCOC(=O)C(C)C [Cmpd 142, (S)-(S)-1,1-diphenylpropan-2-yl 2-(3-((isobutyryloxy)methoxy)-4-methoxypicolinamido)propanoate] | > 80% | > 80% | > 80% | > 80%
6 | COc1ccnc(C(=O)N[C@@H](C)C(=O)O[C@@H](C)C(c2ccc(F)cc2)c2ccc(F)cc2)c1OC(C)=O [Cmpd 145] | > 80% | > 80% | > 80% | > 80%
7 | COc1ccnc(C(=O)N[C@@H](C)C(=O)O[C@@H](C)C(c2ccc(Cl)cc2)c2ccc(Cl)cc2)c1OCOC(C)=O [Cmpd 176] | > 80% | > 80% | > 80% | > 80%
8 | COc1ccnc(C(=O)N[C@@H](C)C(=O)O[C@@H](C)C(c2ccc(F)cc2F)c2ccc(F)cc2F)c1OCOC(C)=O [Cmpd 148] | > 80% | > 80% | > 80% | > 80%
9 | COc1ccnc(C(=O)N[C@@H](C)C(=O)O[C@@H](C)C(c2ccc(Cl)cc2)c2ccc(Cl)cc2)c1OC(C)=O [Cmpd 174] | > 80% | < 80% | > 80% | < 80%
10 | COc1ccnc(C(=O)N[C@@H](C)C(=O)O[C@@H](C)C(c2ccc(F)cc2F)c2ccc(F)cc2F)c1OC(C)=O [Cmpd 150] | > 80% | > 80% | > 80% | > 80%

Source: patent publication US20240423207A1, “PICOLINAMIDE COMPOUNDS WITH FUNGICIDAL ACTIVITY” (CORTEVA AGRISCIENCE LLC, priority 2014, published 2024)
